Data taken from PubChem BioAssay (NCI).
“And” between values parts separate entries of the source, which are not always exact repeats. Identical values can stand only once.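 Five concentrations, 48 hours, 96-well plates. GI50 is the concentration that inhibits growth by half. TGI: concentration producing complete growth inhibition.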

What was measured:
Experiment in all cases: growth of human tumour cells (NCI), 48 h
786-0 renal = tested on: 786-0 renal
A498 renal = tested on: A498 renal
A549 NSCLC = tested on: A549 NSCLC
ACHN renal = tested on: ACHN renal
BT-549 breast = tested on: BT-549 breast
CAKI-1 renal = tested on: CAKI-1 renal
CCRF-CEM leukemia = tested on: CCRF-CEM leukemia
COLO 205 colon = tested on: COLO 205 colon
DU-145 prostate = tested on: DU-145 prostate
EKVX NSCLC = tested on: EKVX NSCLC
HCC-2998 colon = tested on: HCC-2998 colon
HCT-116 colon = tested on: HCT-116 colon
HCT-15 colon = tested on: HCT-15 colon
HL-60(TB) leukemia = tested on: HL-60(TB) leukemia
HOP-62 NSCLC = tested on: HOP-62 NSCLC
HOP-92 NSCLC = tested on: HOP-92 NSCLC
HS 578T breast = tested on: HS 578T breast
HT29 colon = tested on: HT29 colon
IGROV1 ovarian = tested on: IGROV1 ovarian
K-562 leukemia = tested on: K-562 leukemia
KM12 colon = tested on: KM12 colon
LOX IMVI melanoma = tested on: LOX IMVI melanoma
M14 melanoma = tested on: M14 melanoma
MALME-3M melanoma = tested on: MALME-3M melanoma
MCF7 breast = tested on: MCF7 breast
MDA-MB-231 breast = tested on: MDA-MB-231 breast
MDA-MB-435 = tested on: MDA-MB-435
MOLT-4 leukemia = tested on: MOLT-4 leukemia
NCI-H226 lung = tested on: NCI-H226 lung
NCI-H23 lung = tested on: NCI-H23 lung
NCI-H460 lung = tested on: NCI-H460 lung
NCI-H522 lung = tested on: NCI-H522 lung
NCI/ADR-RES ovarian = tested on: NCI/ADR-RES ovarian
OVCAR-3 ovarian = tested on: OVCAR-3 ovarian
OVCAR-4 ovarian = tested on: OVCAR-4 ovarian
OVCAR-5 ovarian = tested on: OVCAR-5 ovarian
OVCAR-8 ovarian = tested on: OVCAR-8 ovarian
PC-3 prostate = tested on: PC-3 prostate
RPMI-8226 leukemia = tested on: RPMI-8226 leukemia
RXF 393 renal = tested on: RXF 393 renal
SF-268 CNS = tested on: SF-268 CNS
SF-295 CNS = tested on: SF-295 CNS
SF-539 CNS = tested on: SF-539 CNS
SK-MEL-2 melanoma = tested on: SK-MEL-2 melanoma
SK-MEL-28 melanoma = tested on: SK-MEL-28 melanoma
SK-MEL-5 melanoma = tested on: SK-MEL-5 melanoma
SK-OV-3 ovarian = tested on: SK-OV-3 ovarian
SN12C renal = tested on: SN12C renal
SNB-19 CNS = tested on: SNB-19 CNS
SNB-75 CNS = tested on: SNB-75 CNS
SR leukemia = tested on: SR leukemia
SW-620 colon = tested on: SW-620 colon
T-47D breast = tested on: T-47D breast
TK-10 renal = tested on: TK-10 renal
U251 CNS = tested on: U251 CNS
UACC-257 melanoma = tested on: UACC-257 melanoma
UACC-62 melanoma = tested on: UACC-62 melanoma
UO-31 renal = tested on: UO-31 renal

## C[C@@H]1C[C@H]2C(=O)OCC(NC(=O)[C@H](Cc3cc(F)cc(F)c3)NC(=O)Nc3ccc(Cl)cc3F)C(=O)N3CCC[C@H]3C(=O)N3CCCC[C@H]3C(=O)N[C@@H](C)C(=O)N2C1 (some centres undefined)
786-0 renal
  GI50: 3060 nM and 1180 nM
  TGI: 50 µM and 55.5 µM
A498 renal
  GI50: 2470 nM
  TGI: 28.5 µM and 19.2 µM
A549 NSCLC
  GI50: 1960 nM and 916 nM
  TGI: 50 µM and > 100 µM
ACHN renal
  GI50: 2220 nM and 1140 nM
  TGI: 50 µM and > 100 µM
BT-549 breast
  GI50: 1910 nM and 499 nM
  TGI: 8.74 µM and 6.72 µM
CAKI-1 renal
  GI50: 1900 nM and 400 nM
  TGI: 50 µM and 15.6 µM
CCRF-CEM leukemia
  GI50: 2180 nM and 510 nM
  TGI: 47.2 µM and 19 µM
COLO 205 colon
  GI50: 1270 nM and 402 nM
  TGI: 3640 nM and 1390 nM
DU-145 prostate
  GI50: 2100 nM and 511 nM
  TGI: 50 µM and > 100 µM
EKVX NSCLC
  GI50: 2160 nM and 643 nM
  TGI: 50 µM and 97.1 µM
HCC-2998 colon
  GI50: 2740 nM and 619 nM
  TGI: 11.2 µM and 4.46 µM
HCT-116 colon
  GI50: 1960 nM and 355 nM
  TGI: 7.37 µM and 2.04 µM
HCT-15 colon
  GI50: 1960 nM and 468 nM
  TGI: 37.3 µM and 10.4 µM
HL-60(TB) leukemia
  GI50: 1730 nM and 287 nM
  TGI: 8.21 µM and 1.53 µM
HOP-62 NSCLC
  GI50: 2030 nM and 1070 nM
  TGI: 50 µM and 35.8 µM
HOP-92 NSCLC
  GI50: 1410 nM and 399 nM
  TGI: 8.43 µM and 7.29 µM
HS 578T breast
  GI50: 1740 nM and 603 nM
  TGI: 50 µM and 18.6 µM
HT29 colon
  GI50: 1910 nM and 595 nM
  TGI: 8.68 µM and 3.37 µM
IGROV1 ovarian
  GI50: 4.56 µM and 1.6 µM
  TGI: 50 µM and 81.6 µM
K-562 leukemia
  GI50: 399 nM
  TGI: > 100 µM
KM12 colon
  GI50: 3330 nM and 2500 nM
  TGI: 27.1 µM and 19.7 µM
LOX IMVI melanoma
  GI50: 898 nM and 776 nM
M14 melanoma
  GI50: 2050 nM and 448 nM
  TGI: 9.05 µM and 10.3 µM
MALME-3M melanoma
  GI50: 3100 nM and 1640 nM
  TGI: 16.7 µM and 16.3 µM
MCF7 breast
  GI50: 1890 nM and 390 nM
  TGI: 50 µM and 20 µM
MDA-MB-231 breast
  GI50: 1650 nM and 484 nM
  TGI: 5.9 µM and 4.24 µM
MDA-MB-435
  GI50: 2250 nM and 495 nM
  TGI: 13.2 µM and 12.3 µM
MOLT-4 leukemia
  GI50: 437 nM and 793 nM
  TGI: 5.12 µM and 17.9 µM
NCI-H226 lung
  GI50: 2080 nM and 312 nM
NCI-H23 lung
  GI50: 2790 nM
  TGI: 50 µM
NCI-H460 lung
  GI50: 1880 nM and 516 nM
  TGI: 50 µM and 17.3 µM
NCI-H522 lung
  GI50: 1440 nM and 380 nM
  TGI: 8.78 µM and 5.8 µM
NCI/ADR-RES ovarian
  GI50: 7.72 µM and 2.87 µM
  TGI: 50 µM and > 100 µM
OVCAR-3 ovarian
  GI50: 2230 nM and 550 nM
  TGI: 50 µM and 11.4 µM
OVCAR-4 ovarian
  GI50: 1660 nM and 482 nM
  TGI: 50 µM and > 100 µM
OVCAR-5 ovarian
  GI50: 2340 nM and 751 nM
  TGI: 10.9 µM and 16.5 µM
OVCAR-8 ovarian
  GI50: 1790 nM and 408 nM
  TGI: 50 µM and > 100 µM
PC-3 prostate
  GI50: 1700 nM and 373 nM
  TGI: 29.4 µM and 19 µM
RPMI-8226 leukemia
  GI50: 1190 nM and 333 nM
  TGI: 7.42 µM and 1.72 µM
RXF 393 renal
  GI50: 2890 nM and 1690 nM
  TGI: 13.4 µM and 11.5 µM
SF-268 CNS
  GI50: 3150 nM and 645 nM
  TGI: 50 µM and 51.9 µM
SF-295 CNS
  GI50: 1870 nM and 411 nM
  TGI: 11.8 µM and 7.71 µM
SF-539 CNS
  GI50: 2630 nM and 1270 nM
  TGI: 10.5 µM and 15.4 µM
SK-MEL-2 melanoma
  GI50: 1810 nM and 337 nM
  TGI: 8.07 µM and 3.28 µM
SK-MEL-28 melanoma
  GI50: 3040 nM and 1370 nM
  TGI: 12.5 µM and 16.4 µM
SK-MEL-5 melanoma
  GI50: 1820 nM and 566 nM
  TGI: 7.37 µM and 4.56 µM
SK-OV-3 ovarian
  GI50: 2140 nM and 1510 nM
  TGI: 35.6 µM and 17.1 µM
SN12C renal
  GI50: 1680 nM and 444 nM
  TGI: 50 µM and 82.4 µM
SNB-19 CNS
  GI50: 2000 nM and 460 nM
  TGI: 50 µM and > 100 µM
SNB-75 CNS
  GI50: 2290 nM and 365 nM
  TGI: 50 µM and 16.9 µM
SR leukemia
  GI50: 964 nM and 1370 nM
  TGI: 6.9 µM and 14.4 µM
SW-620 colon
  GI50: 3370 nM and 801 nM
  TGI: 50 µM and > 100 µM
T-47D breast
  GI50: 1730 nM and 549 nM
  TGI: 50 µM and 30.7 µM
TK-10 renal
  GI50: 3040 nM and 1490 nM
  TGI: 50 µM and 33.8 µM
U251 CNS
  GI50: 2200 nM and 514 nM
  TGI: 50 µM and 28.8 µM
UACC-257 melanoma
  GI50: 1450 nM and 449 nM
  TGI: 6.43 µM and 7.05 µM
UACC-62 melanoma
  GI50: 2300 nM and 644 nM
  TGI: 12.4 µM and 14.9 µM
UO-31 renal
  GI50: 2120 nM and 2030 nM
  TGI: 50 µM and 65.8 µM
